Here are results for 3 compounds from patent US11401279B2, “Pyrido[3,2-d]pyrimidine compounds as immunomodulators” (Incyte Corporation, priority 2019, dated 2022).

The nature of data set [1]: In vivo pharmacokinetics in monkeys. Particulars: cynomolgus monkey, cassette dosing; for clearance / half-life / Vd / AUC(0-inf) / Cmax: both sexes, plasma; for clearance / half-life / Vd: 1.0 mg/kg IV; for Vd: read-out: Vss; for AUC(0-inf) / Cmax / F: 3.0 mg/kg PO. The protocol:
For in vivo pharmacokinetic experiments, test compounds were administered to male Sprague Dawley rats or male and female Cynomolgus monkeys intravenously or via oral gavage. For intravenous (IV) dosing, test compounds were dosed at 0.5 to 1 mg/kg using a formulation of 10% dimethylacetamide (DMAC) in acidified saline via IV bolus for rat and 5 min or 10 min IV infusion for monkey. For oral (PO) dosing, test compounds were dosed at 1.0 to 3.0 mg/kg using 5% DMAC in 0.5% methylcellulose in citrate buffer (pH 3.5). Blood samples were collected at predose and various time points up to 24 hours postdose. All blood samples were collected using EDTA as the anticoagulant and centrifuged to obtain plasma samples. The plasma concentrations of test compounds were determined by LC-MS methods. The measured plasma concentrations were used to calculate PK parameters by standard noncompartmental methods using Phoenix® WinNonlin software program (version 7.0, Pharsight Corporation).
In rats and monkeys, cassette dosing of test compounds were conducted to obtain preliminary PK parameters.

Data set [2] relates to U2OS/PD-L1 cells and Jurkat-PD-1-SHP cells. Kind of data set: Src homology region 2 domain-containing phosphatase (SHP) assay. The class given is cell-based. Particulars: Homo sapiens, U2OS; PathHunter chemiluminescence, 2 hours. In short, it runs like this: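 U2OS/PD-L1 cells and Jurkat-PD-1-SHP cells, 5000 each, were co-incubated with compound for 2 h at 37 °C in RPMI with 1% FBS. PathHunter enzyme-fragment complementation chemiluminescence reported PD-1/SHP recruitment. IC50 was fitted from percent of DMSO-control activity versus log concentration.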

The next data set has as its target PD-1/PD-L1 (Homo sapiens (Human), UniProt Q9NZQ7). The data set can be described thus: Homogeneous Time-Resolved Fluorescence (HTRF) PD-1/PD-L1 binding assay. Particulars: recombinant human PD-1 and PD-L1. The procedure, abridged:
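Human PD-1 (25-167, Fc-tagged; 3 nM) and PD-L1 (19-238, His-tagged; 10 nM) were preincubated 40 min with inhibitors in PBS pH 7.4, 0.05% Tween-20, 0.1% BSA, 1% DMSO, at 25 °C. Eu-anti-human IgG (1 nM) and anti-His-APC (20 nM) were added for 60 min. The 665/620 nm HTRF ratio gave IC50 by curve fitting.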

Data set [3] can be described thus: In vivo pharmacokinetics in rats. On the set-up: species or system Sprague Dawley rats. Particulars: rat, cassette dosing; for clearance / half-life / Vd / Cmax / AUC(0-inf): male, Sprague-Dawley, plasma; for clearance / half-life / Vd: 1.0 mg/kg IV; for Vd: read-out: Vss; for Cmax / AUC(0-inf) / F: 3.0 mg/kg PO; for AUC(0-inf): read-out: AUC0-inf.

Sequence of PD-1/PD-L1 (Q9NZQ7 19-238): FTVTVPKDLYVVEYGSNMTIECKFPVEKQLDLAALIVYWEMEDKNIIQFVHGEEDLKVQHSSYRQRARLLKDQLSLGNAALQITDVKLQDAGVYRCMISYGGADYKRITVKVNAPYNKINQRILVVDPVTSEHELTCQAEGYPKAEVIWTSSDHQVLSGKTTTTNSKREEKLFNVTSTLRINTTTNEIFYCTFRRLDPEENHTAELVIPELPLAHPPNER

Take `Cc1c(Nc2nc(C(F)F)nc3cc(CN4CC[C@@H](O)C4)cnc23)cccc1-c1cccc(NC(=O)c2nc3c(n2C)CCN(CCC24CCC(C(=O)O)(CC2)C4)C3)c1Cl` [Example 1, (R)-4-(2-(2-((2-chloro-3′-((2-(difluoromethyl)-7-((3-hydroxypyrrolidin-1-yl)methyl)pyrido[3,2-d]pyrimidin-4-yl)amino)-2′-methyl-[1,1′-biphenyl]-3-yl)carbamoyl)-1-methyl-1,4,6,7-tetrahydro-5H-imidazo[4,5-c]pyridin-5-yl)ethyl)bicyclo[2.2.1]heptane-1-carboxylic Acid]: in data set [1], the clearance is 4.25 mL/min/kg, the half-life is 6.35 h, the Vd was found to be 1.01 L/kg and the AUC(0-inf) turned out to be 8.24 µM·h. In data set [1], this compound displayed a Cmax of 794 nM and an F of 59%. In addition, the IC50 in data set [2] worked out at 3 nM. Also, the IC50 on PD-1/PD-L1 was determined as 2.2 nM. Further, in data set [3], the clearance was 6.15 mL/min/kg, the half-life was 4.4 h, the Vd came to 1.75 L/kg and the Cmax turned out to be 166 nM. In data set [3], the AUC(0-inf) stood at 1.4 µM·h and the F was 14%.
Turning to `Cc1c(Nc2nc(C(F)F)nc3cc(CN4CC[C@@](C)(O)C4)cnc23)cccc1-c1cccc(NC(=O)c2nc3c(n2C)CCN(CCC24CCC(C(=O)O)(CC2)C4)C3)c1Cl` [Example 2, (R)-4-(2-(2-((2-chloro-3′-((2-(difluoromethyl)-7-((3-hydroxy-3-methylpyrrolidin-1-yl)methyl)pyrido[3,2-d]pyrimidin-4-yl)amino)-2′-methyl-[1,1′-biphenyl]-3-yl)carbamoyl)-1-methyl-1,4,6,7-tetrahydro-5H-imidazo[4,5-c]pyridin-5-yl)ethyl)bicyclo[2.2.1]heptane-1-carboxylic Acid], in data set [1], the clearance was 4.78 mL/min/kg, the half-life was 6.23 h, the Vd was found to be 1.36 L/kg and the AUC(0-inf) is 6.84 µM·h. In data set [1], the highest concentration (Cmax) came out at 579 nM and the F is 57%. Also, the concentration for half-maximal inhibition (IC50) in data set [2] came to 3.9 nM. Also, the half-maximal inhibitory concentration (IC50) on PD-1/PD-L1 came out at 1.5 nM. Moreover, in data set [3], the clearance is 7.85 mL/min/kg, the half-life is 4.4 h, the Vd was found to be 2.63 L/kg and the Cmax came to 111 nM. Besides, in data set [3], the AUC(0-inf) is 1.07 µM·h and the F is 14%.
`Cc1c(NC(=O)c2nc3c(n2C)CCN(CCC24CCC(C(=O)O)(CC2)C4)C3)cccc1-c1cccc(Nc2nc(C(F)F)nc3cc(CN4CC[C@@H](O)C4)cnc23)c1C` [Example 5, (R)-4-(2-(2-((3′-((2-(difluoromethyl)-7-((3-hydroxypyrrolidin-1-yl)methyl)pyrido[3,2-d]pyrimidin-4-yl)amino)-2,2′-dimethyl-[1,1′-biphenyl]-3-yl)carbamoyl)-1-methyl-1,4,6,7-tetrahydro-5H-imidazo[4,5-c]pyridin-5-yl)ethyl)bicyclo[2.2.1]heptane-1-carboxylic Acid]: in data set [1], the clearance was 4.93 mL/min/kg, the half-life is 8.48 h, the Vd stood at 1.14 L/kg and the AUC(0-inf) worked out at 11.1 µM·h. Further, in data set [1], the Cmax was determined as 1300 nM and the F was determined as 89%. The half-maximal inhibitory concentration (IC50) in data set [2] amounted to 4 nM. At PD-1/PD-L1, the IC50 worked out at 2.1 nM. For the same compound, in data set [3], the clearance is 6.93 mL/min/kg, the half-life was 3.9 h, the Vd stood at 1.63 L/kg and the Cmax was 241 nM. In addition, in data set [3], the AUC(0-inf) was 1.65 µM·h and the F was found to be 19%.
